Results published in patent US20230065953A1, “NOVEL HETEROARYL-TRIAZOLE COMPOUNDS AS PESTICIDES” (Bayer Aktiengesellschaft, priority 2019, published 2023).

Assays:
Type in all cases: in vivo
[1] = system: larvae of the banded cucumber beetle (Diabrotica balteata); experiment: Diabrotica balteata spray test; conditions: 168 h, 100 g/ha (=32 μg/well), wheat seeds, after 7 days, read-out: efficacy (seedling growth)
How it was run: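 Wheat seeds germinated 1 day on agar were sprayed with compound in acetone/dimethylformamide with alkylarylpolyglycol ether emulsifier, diluted in emulsifier-containing water. Each unit then received 10-20 larvae, and % efficacy was scored after 7 days.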

[2] = system: adult cat fleas (Ctenocephalides felis); experiment: Ctenocephalides felis in-vitro contact test, adult cat flea; conditions: 5 μg/cm^2 (=500 g/ha), after 48 hours
Protocol: Ctenocephalides felis—In-Vitro Contact Tests Adult Cat Flea
(§1) 9 mg compound is solved in 1 mL acetone and diluted with acetone to the desired concentration. 250 μL of the test solution is filled in 25 mL glass test tubes and homogeneously distributed on the inner walls by rotation and tilting on a shaking device (2 h at 30 rpm). With a compound concentration of 900 ppm, an inner surface of 44.7 cm^2 and a homogeneous distribution, a dose of 5 μg/cm^2 is achieved.
After the solvent has evaporated, each test tube is filled with 5-10 adult cat fleas (Ctenocephalides felis), closed with a perforated lid and incubated in a lying position at room temperature and relative humidity. After 48 hours efficacy is determined. The fleas are patted on the ground of the tubes and are incubated on a heating plate at 45-50° C. for at most 5 minutes. Immotile or uncoordinated moving fleas, which are not able to escape the heat by climbing upwards, are marked as dead or moribund.
An efficacy of 100% means all fleas are dead or moribund; 0% means no fleas are dead or moribund.

[3] = system: fall armyworm larvae (Spodoptera frugiperda); experiment: Spodoptera frugiperda spray test (maize leaf sections); conditions: 168 h
How it was run: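 Maize leaf sections sprayed with compound in acetone/dimethylformamide, diluted in water with 1000 ppm alkylarylpolyglycol ether emulsifier. Dried sections infested with fall armyworm larvae. Mortality (%) scored after 7 days; 100% = all caterpillars killed.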

[4] = system: Rhipicephalus microplus larvae (strain Parkhurst, resistant against synthetic pyrethroids); experiment: Rhipicephalus (Boophilus) microplus in-vitro contact test, larval cattle tick; conditions: 5 μg/cm^2 (=500 g/ha), after 48 hours, read-out: efficacy (larvae dead or moribund)
Protocol: Rhipicephalus (Boophilus) Microplus—In-Vitro Contact Tests Larval Cattle Tick (Strain Parkhurst, Resistant Against Synthetic Pyrethroids)
as §1
After the solvent has evaporated, each test tube is filled with 20-50 cattle tick larvae (Rhipicephalus microplus), closed with a perforated lid and incubated in a horizontal position at 85% relative humidity and 27° C. in an incubator. After 48 hours efficacy is determined. The larvae are patted on the ground of the tubes and negative geotactic behavior is recorded.
An efficacy of 100% means all larvae are dead or moribund; 0% means no larvae are dead or moribund.

[5] = system: larvae of the southern green stink bug (Nezara viridula); experiment: Nezara viridula spray test; conditions: in Hordeum vulgare, 96 h
Protocol: Nezara viridula—Spray Test • Solvent: 78.0 parts by weight of acetone • 1.5 parts by weight of dimethylformamide • Emulsifier: alkylarylpolyglycol ether
To produce a suitable preparation of active compound, 1 part by weight of active compound is mixed with the stated amount of solvent, and the concentrate is diluted with water, containing an emulsifier concentration of 1000 ppm, to the desired concentration. Further test concentrations are prepared by dilution with emulsifier containing water.
Barley plants (Hordeum vulgare) are sprayed with a test solution containing the desired concentration of the active ingredient and are infested with larvae of the southern green stink bug (Nezara viridula).
After 4 days mortality in % is determined. 100% means all the stink bugs have been killed; 0% means none of the stink bugs have been killed.

[6] = system: green peach aphid (Myzus persicae); experiment: Myzus persicae oral test; conditions: 120 h
Protocol: Myzus persicae—oral test • Solvent: 100 parts by weight acetone
To produce a suitable preparation of active compound, 1 part by weight of active compound is mixed with the stated amount of solvent, and the concentrate is diluted with water to the desired concentration. 50 μL compound solution is filled in microtiter plates and 150 μL IPL41 insect medium (33%+15% sugar) is added to obtain a total volume of 200 μL per well. Afterwards the plates are sealed with parafilm through which a mixed population of the green peach aphid (Myzus persicae) can suck on the compound preparation.
After 5 days mortality in % is determined. 100% means all aphids have been killed and 0% means none of the aphids have been killed.

[7] = system: adult engorged female ticks (Rhipicephalus microplus); experiment: Rhipicephalus (Boophilus) microplus injection test; conditions: 168 h, 4 μg/animal, egg deposition after 7 days, read-out: efficacy (infertile eggs)
Protocol: Rhipicephalus (Boophilus) Microplus—Injection Test
(§2) Solvent: dimethyl sulfoxide
To produce a suitable preparation of active compound, 10 mg of active compound are dissolved in 0.5 mL solvent, and the concentrate is diluted with solvent to the desired concentration.
Five adult engorged female ticks (Rhipicephalus microplus) are injected with 1 μL compound solution into the abdomen. The ticks are transferred into replica plates and incubated in a climate chamber.
After 7 days egg deposition of fertile eggs is monitored. Eggs where fertility is not visible are stored in a climate chamber till hatching after about 42 days. An efficacy of 100% means all eggs are infertile; 0% means all eggs are fertile.

[8] = system: adult unfed cat fleas (Ctenocephalides felis); experiment: Ctenocephalides felis oral test; conditions: 48 h
Protocol: Ctenocephalides felis—Oral Test
as §2
To produce a suitable preparation of active compound, 10 mg of active compound are dissolved in 0.5 mL solvent, and the concentrate is diluted with cattle blood to the desired concentration.
Approximately 20 adult unfed cat fleas (Ctenocephalides felis) are placed in flea chambers. The blood chamber, sealed with parafilm on the bottom, are filled with cattle blood supplied with compound solution and placed on the gauze covered top of the flea chamber, so that the fleas are able to suck the blood. The blood chamber is heated to 37° C. whereas the flea chamber is kept at room temperature.
After 2 days mortality in % is determined. 100% means all the fleas have been killed; 0% means none of the fleas have been killed.

SMILES	pest or weed control at 32 µg/disc, 100 g/ha [1] [%]	efficacy (fleas dead or moribund) [2] [%]	mortality at 100 g/ha [3] [%]	pest or weed control at 5 µg/cm2 [4] [%]	mortality at 100 g/ha [5] [%]	mortality at 500 g/ha [5] [%]	mortality at 4 ppm [6] [%]	pest or weed control at 0.004 mg [7] [%]	mortality at 100 ppm [8] [%]
Cc1nc([C@H](C)NC(=O)c2cc(Br)cc(OC(F)(F)F)c2)n(-c2ncc(C(=O)N(C)C(C)C)s2)n1 [I-126]	100	80	100	100	–	–	–	–	–
Cc1nc([C@H](C)NC(=O)c2cc(Br)cc(OC(F)(F)F)c2)n(-c2ncc(C(=O)N(C)CC3CC3)s2)n1 [I-124]	100	100	100	100	100	100	–	–	–
CC(NC(=O)c1cc(OC(F)(F)F)cc(S(C)(=O)=O)c1)c1ncnn1-c1ncc(C#N)s1 (centres unmarked) [I-37]	100	80	100	–	–	–	100	100	100
Cc1nc([C@H](C)NC(=O)c2cc(Cl)cc(I)c2)n(-c2ncc(C(=O)N(C)C)s2)n1 [I-76]	–	80	100	100	–	–	–	–	–
Cc1nc([C@H](C)NC(=O)c2cc(Br)cc(C#N)c2)n(-c2ncc(C(=O)N(C)C)s2)n1 [I-70]	–	100	–	70	–	–	–	–	–
Cc1nc([C@H](C)NC(=O)c2cc(Br)cc(Br)c2)n(-c2ncc(C(=O)N(C)C)s2)n1 [I-71]	100	100	–	100	–	–	–	–	–
CC(NC(=O)c1cc(C(F)(F)F)cc(S(C)(=O)=O)c1)c1ncnn1-c1ncc(C#N)s1 (centres unmarked) [I-82]	80	80	100	90	90	–	100	100	100
CC(NC(=O)c1cc(Cl)cc(OC(F)(F)F)c1)c1ncnn1-c1ncc(C#N)s1 (centres unmarked) [I-28]	100	100	100	100	–	–	–	–	–
Cc1nc([C@H](C)NC(=O)c2cc(Br)cc(C#N)c2)n(-c2ncc(C(=O)N(C)CC#N)s2)n1 [I-75]	100	90	–	90	–	–	100	–	–
Cc1nc([C@H](C)NC(=O)c2cc(C(F)(F)F)cc(S(C)(=O)=O)c2)n(-c2ncc(C(=O)N(C)C)s2)n1 [I-83]	–	80	–	–	–	–	100	100	100
